Several values for one entry are separate records, joined by “and”; a condition that tells them apart may be missing. Equal values may be shown once.
Experiments:
[1] = DPPH radical scavenging assay; details: methanol, 517 nm; for DPPH/sca% 10 μM: compound 10 μM; for DPPH/sca% 50 μM: compound 50 μM; for DPPH/sca% 100 μM: compound 100 μM
Experimental: (§1) All new synthetic compounds 4a–o were tested for their potential inhibitory activity of AKR1B1 isolated from rat lenses. Besides, the inhibitory activity of aldehyde reductase (AKR1A1) isolated from rat kidneys was also investigated to evaluate the selectivity for AKR1B1. The enzyme AKR1A1 is closely related to AKR1B1, and plays an important role in physiological detoxification. […] Additionally, the antioxidant activity was assessed by using the model reaction with the stable free radical of 2,2-diphenyl-1-picrylhydrazyl (DPPH) according to the modified method, which was first employed by Blois[23].
The antioxidant activity of all synthesised compounds was determined with the DPPH model reaction and […] (Trolox) was employed as a positive control (Table 2).
To investigate the antiradical activity of target compounds in a homogeneous system, a method based on the scavenging of the stable free radical DPPH was employed. A 100 μL of methanolic solution of various compounds with different concentrations was added to 1 mL DPPH methanolic solution (2.5 × 10^-5 g/mL) and 1.9 ml methanol solution to give final concentrations of 0.1, 0.05, 0.01 mM for the tested compounds, respectively. After vortexing thoroughly and leaving for 30 min at room temperature, the optical density was measured at λ 517 nm using the Shimadzu UV-1800 spectrophotometer. The tested compounds and the reference (Trolox) were dissolved in methanol, and after 240 min (steady state), the percentage of DPPH radical scavenging was determined by the equation as shown below. The experiments were performed in triplicate.

[2] = biological target: T1, AKR1B1 isolated from rat lenses (Rattus norvegicus, UniProt P07943); assay: AKR1B1 (aldose reductase) inhibition, NADPH oxidation with D,L-glyceraldehyde as substrate; format: biochemical; details: rat lens enzyme, pH 6.2, 30 °C
T1 construct: AKR1B1 isolated from rat lenses; from tissue; host or cells: rat lenses
Experimental: as §1, with “Besides,” for “All new synthetic compounds 4a–o were tested for their potential inhibitory activity of AKR1B1 isolated from rat lenses. Besides,”
The AKR1B1 inhibition activity was performed in a reaction mixture containing 0.25 mL NADPH (0.10 mM), 0.25 mL sodium phosphate buffer (pH = 6.2, 0.1 M), 0.1 mL enzyme extract, 0.15 mL deionized water, and 0.25 mL D,L-glyceraldehyde (10 mM) as substrate in a final volume of 1 mL. Before adding to D,L-glyceraldehyde, the reaction mixture was incubated at 30 °C for 10 min, and then the substrate was added to start the reaction, which was monitored for 4 min.
(§2) The inhibitory activity of the newly synthesized compounds against AKR1B1 and AKR1A1 was assayed by adding 5 μL of the inhibitor solution to the reaction mixture described above. All compounds were dissolved in dimethyl sulfoxide (DMSO) and diluted with deionized H2O. To correct for the nonenzymatic oxidation of NADPH, the rate of NADPH oxidation in the presence of all the reaction mixture components except the substrate was subtracted from each experimental rate. The inhibitory effect of the synthetic compounds was routinely estimated at 10^-4 M (the concentration is referenced to that of the compound in the reaction mixture).

[3] = biological target: T2, AKR1A1 isolated from rat kidneys (Rattus norvegicus, UniProt P51635); assay: AKR1A1 (aldehyde reductase) inhibition, NADPH oxidation with sodium D-glucuronate as substrate; format: biochemical; details: rat kidney enzyme, pH 7.2, 37 °C
T2 construct: aldehyde reductase (AKR1A1) isolated from rat kidneys; from tissue; host or cells: rat kidneys
T2 sequence (P51635 1-325): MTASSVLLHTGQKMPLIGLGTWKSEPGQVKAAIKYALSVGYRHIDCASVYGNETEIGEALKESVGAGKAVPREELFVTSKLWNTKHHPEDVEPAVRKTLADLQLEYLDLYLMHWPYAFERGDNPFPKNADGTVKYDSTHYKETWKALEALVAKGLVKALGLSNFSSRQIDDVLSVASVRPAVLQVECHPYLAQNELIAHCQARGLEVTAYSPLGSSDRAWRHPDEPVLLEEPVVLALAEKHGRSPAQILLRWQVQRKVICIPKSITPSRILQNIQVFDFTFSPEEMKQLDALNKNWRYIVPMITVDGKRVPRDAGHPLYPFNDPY
Experimental: as §1
The AKR1A1 inhibition activity was performed in a reaction mixture containing 0.25 mL NADPH (0.12 mM), 0.1 mL enzyme extract, 0.25 mL sodium phosphate buffer (pH = 7.2, 0.1 M), 0.15 mL deionized water, and 0.25 mL sodium D-glucuronate (20 mM) as substrate in a final volume of 1 mL. Before adding to sodium D-glucuronate, the reaction mixture was incubated at 37 °C for 10 min, and then the substrate was added to start the reaction, which was monitored for 4 min.
as §2

SMILES | melting point | DPPH/sca% 10 μM [1] | DPPH/sca% 50 μM [1] | DPPH/sca% 100 μM [1] | IC50 [2] | IC50 [3]
O=C(O)Cn1c(=O)c(Oc2cc(O)c(O)c(O)c2)nc2cccnc21 [4o, 2-(3-oxo-2-(3,4,5-trihydroxyphenoxy)pyrido[3,2-b]pyrazin-4(3H)-yl)acetic acid] | 241 to 246 °C | 23.4 ± 2.0% | 65.2 ± 1.9% | 88.5 ± 1.4% | 0.859 ± 0.058 µM | 21.7 ± 1.47 µM
O=C(O)Cn1c(=O)c(Oc2cc(O)cc(O)c2)nc2cccnc21 [4j, 2-(2-(3,5-dihydroxyphenoxy)-3-oxopyrido[3,2-b]pyrazin-4(3H)-yl)acetic acid] | 231 to 237 °C | 45.3 ± 1.9% | 77.2 ± 1.5% | 95.0 ± 0.9% | 0.087 ± 0.007 µM | 20.8 ± 1.5 µM
O=C(O)Cn1c(=O)c(Oc2cc(O)cc(O)c2)nc2cc(Br)cnc21 [4l, 2-(7-bromo-2-(3,5-dihydroxyphenoxy)-3-oxopyrido[3,2-b]pyrazin-4(3H)-yl)acetic acid] | 233 to 235 °C | 46.8% and 46.8 ± 1.5% | 80.6% and 80.6 ± 2.0% | 95.3% and 95.3 ± 1.2% | 0.056 ± 0.005 µM | 19.8 ± 1.41 µM
COc1cc(O)cc(Oc2nc3cccnc3n(CC(=O)O)c2=O)c1 [4i, 2-(2-(3-hydroxy-5-methoxyphenoxy)-3-oxopyrido[3,2-b]pyrazin-4(3H)-yl)acetic acid] | 229 to 232 °C | – | 45.2 ± 1.8% | 78.4 ± 0.7% | 2.85 ± 0.031 µM | 15.1 ± 0.924 µM
CC(/C=C1\SC(=S)N(CC(=O)O)C1=O)=C\c1ccccc1 [Epalrestat, reference compound] | – | – | – | – | – | 55.7 ± 3.29 µM
O=C(O)Cn1c(=O)c(Oc2ccc(O)c(O)c2)nc2cccnc21 [4h, 2-(2-(3,4-dihydroxyphenoxy)-3-oxopyrido[3,2-b]pyrazin-4(3H)-yl)acetic acid] | 231 to 236 °C | – | 44.1 ± 2.3% | 74.6 ± 1.4% | 0.305 ± 0.022 µM | 16.9 ± 0.692 µM
COc1ccc(Oc2nc3cccnc3n(CC(=O)O)c2=O)cc1O [4g, 2-(2-(3-hydroxy-4-methoxyphenoxy)-3-oxopyrido[3,2-b]pyrazin-4(3H)-yl)acetic acid] | 232 to 236 °C | – | 21.5 ± 1.2% | 54.8 ± 1.6% | 2.5 ± 0.203 µM | 19.3 ± 1.81 µM
O=C(O)Cn1c(=O)c(Oc2ccc(O)cc2)nc2cccnc21 [4f, 2-(2-(4-hydroxyphenoxy)-3-oxopyrido[3,2-b]pyrazin-4(3H)-yl)acetic acid] | 231 to 239 °C | – | – | 37.7 ± 1.0% | 0.121 ± 0.01 µM | 15.9 ± 0.781 µM
Cc1c(C)c2c(c(C)c1O)CCC(C)(C(=O)O)O2 (centres unmarked) [Trolox, […], reference compound] | – | 85.9 ± 0.6% | 89.8 ± 1.0% | 96.7 ± 0.8% | – | –
COc1ccc(Oc2nc3cccnc3n(CC(=O)O)c2=O)cc1 [4b, 2-(2-(4-methoxyphenoxy)-3-oxopyrido[3,2-b]pyrazin-4(3H)-yl)acetic acid] | 234 to 242 °C | – | – | 18.9 ± 0.8% | 2.68 ± 0.199 µM | 19.8 ± 1.32 µM
O=C(O)Cn1c(=O)c(Oc2ccccc2)nc2cccnc21 [4a, 2-(3-oxo-2-phenoxypyrido[3,2-b]pyrazin-4(3H)-yl)acetic acid] | 239 to 244 °C | – | – | 6.9 ± 1.2% | 8.57 ± 0.523 µM | 26.9 ± 1.45 µM
O=C(O)Cn1c(=O)c(Oc2cc(O)cc(O)c2)nc2cc(Cl)cnc21 [4k, 2-(7-chloro-2-(3,5-dihydroxyphenoxy)-3-oxopyrido[3,2-b]pyrazin-4(3H)-yl)acetic acid] | 232 to 236 °C | 49.1 ± 2.4% | 76.4 ± 0.9% | 94.8 ± 1.1% | 0.023 ± 0.003 µM | 18.4 ± 1.34 µM
COc1ccc(Oc2nc3cccnc3n(CC(=O)O)c2=O)cc1OC [4c, 2-(2-(3,4-dimethoxyphenoxy)-3-oxopyrido[3,2-b]pyrazin-4(3H)-yl)acetic acid] | 241 to 251 °C | – | – | 21.2 ± 1.5% | 5.68 ± 0.608 µM | 17.6 ± 1.02 µM
COc1cc(Oc2nc3cccnc3n(CC(=O)O)c2=O)cc(OC)c1OC [4e, 2-(3-oxo-2-(3,4,5-trimethoxyphenoxy)pyrido[3,2-b]pyrazin-4(3H)-yl)acetic acid] | 235 to 243 °C | – | – | 17.8 ± 0.9% | 7.57 ± 0.431 µM | 20.9 ± 1.21 µM
COc1cc(OC)cc(Oc2nc3cccnc3n(CC(=O)O)c2=O)c1 [4d, 2-(2-(3,5-dimethoxyphenoxy)-3-oxopyrido[3,2-b]pyrazin-4(3H)-yl)acetic acid] | 241 to 247 °C | – | – | 25.9 ± 1.3% | 4.3 ± 0.288 µM | 21.5 ± 1.81 µM
COc1c(O)cc(Oc2nc3cccnc3n(CC(=O)O)c2=O)cc1O [4n, 2-(2-(3,5-dihydroxy-4-methoxyphenoxy)-3-oxopyrido[3,2-b]pyrazin-4(3H)-yl)acetic acid] | 235 to 241 °C | – | 40.8 ± 1.6% | 65.7 ± 0.9% | 2.36 ± 0.184 µM | 25.8 ± 1.65 µM
COc1cc(Oc2nc3cccnc3n(CC(=O)O)c2=O)cc(O)c1OC [4m, 2-(2-(3-hydroxy-4,5-dimethoxyphenoxy)-3-oxopyrido[3,2-b]pyrazin-4(3H)-yl)acetic acid] | 237 to 244 °C | – | 35.9 ± 1.1% | 56.9 ± 1.8% | 4.53 ± 0.258 µM | 31.6 ± 3.06 µM
